Eleven compounds from the OPERA property sets (Mansouri et al. 2018) can be followed below.

As usually defined, the logP is a log measure of how a compound divides between an organic and an aqueous phase. High values mean a more lipophilic compound, low ones a more hydrophilic compound. A word on the solubility: it is the concentration that dissolves in the medium under given conditions. A low value points to little dissolved substance.

≈ marks a conversion by molar mass, not a printed value.

For this data set the following is noted: for solubility: 25 °C.

On to `Clc1cc2c(cc1Cl)Oc1cc(Cl)c(Cl)cc1O2`, for which the logP was found to be 6.8 and the solubility stood at 0.621 nM (≈ 0.2 ng/mL).

Compound `Clc1cccc2c1Oc1ccccc1O2` came in with a logP of 4.75.

`Clc1ccc2c(c1)Oc1c(Cl)c(Cl)c(Cl)c(Cl)c1O2` yielded a logP of 7.4.

`Clc1cc2c(c(Cl)c1Cl)Oc1c(Cl)c(Cl)c(Cl)c(Cl)c1O2` gave a logP of 8.2.

`Clc1c(Cl)c(Cl)c2c(c1Cl)Oc1ccccc1O2` yielded a logP of 6.6 and a solubility of 1.96 nM (≈ 0.63 ng/mL).

With `Clc1ccc2c(c1)Oc1ccccc1O2`, the logP came out at 5.

As for `Clc1cc(Cl)c2c(c1Cl)Oc1ccccc1O2`, the logP was 6.35.

In turn, `Clc1cc2c(cc1Cl)Oc1c(Cl)c(Cl)c(Cl)c(Cl)c1O2` returned a logP of 7.8.

In turn, `Clc1c(Cl)c(Cl)c2c(c1Cl)Oc1c(Cl)c(Cl)c(Cl)c(Cl)c1O2` registered a logP of 8.2.

In turn, `Clc1ccc2c(c1)Oc1ccc(Cl)cc1O2` came in with a logP of 5.75.

`c1ccc2c(c1)Oc1ccccc1O2` came in with a logP of 4.3.
